Source: US7579336B2, “Pharmaceutical composition comprising temozolomide ester” (Tian Jin Tasly Group Co., Ltd., priority 2004, dated 2009)
≈ marks a conversion by molar mass, not a printed value. Where two headings read alike, the source gives them in different places. Marks after values point to notes of the source that are not given here. Blank lines part the entries; values can stand above or below the compound they belong to.

How the values were obtained:
[1] = tested on: MV3 (human melanoma cells); experiment: MTT reduction assay, killing tumor cells; assay type: cell-based; settings: four days culture with drug
Method: (§1) The experiment was carried out for methyl TMZ-8-carboxylate, butyl TMZ-8-carboxylate, n-hexyl TMZ-8-carboxylate, and TMZ acid which had been known as an active compound against carcinoma, and used fluorouracil injection (10 ml:0.25 g, purchased from Xudong Pharmaceutical Co. Ltd, the batch number was 000612) as the drug for the positive control. Cancer cell strains used in experiments included HCT-8(human colon carcinoma cells), A549 (human lung carcinoma cells), MCF-7(human breast carcinoma cells), Bel7402 (human liver carcinoma cells), BGC-823(human gastric carcinoma cells) and MV3 (human melanoma cells).
(§2) TMZ acid is white powder; Methyl TMZ-8-carboxylate, butyl TMZ-8-carboxylate and n-hexyl TMZ-8-carboxylate, white scaly crystals, manufactured by the method described in Example 2; Fluorouracil injection (10 ml: 0.25 g): as drug for the positive control, manufactured by Xudong Pharmaceutical Co. Ltd, the batch number 000612; RPMI: produced by GIBCO; Calf serum: manufactured by Sijiqing bio-engineer material Co. Ltd, Hangzhou; and MTT: produced by Bebco.
(§3) All cancer cell strains of HCT-8, A549, MCF-7, Bel-7402, BGC-823, MV3 and B16 was fostered and transferred of culture by Institute of Materia Medica, Chinese Academy of Medical Sciences and Peking Union Medical College.
(§4) Tetrazolium salt [3-(4,5-dimethylthiazol-2-yl)-2,5-diphenyl-tetrazolium bromide, MTT] reduction assay was used. All the well-grown carcinoma cells were collected, prepared intol 1×10^4/ml cell suspension with the RPMI 1640 culture solution containing 10% calf serum, and inoculated in 96-well culture plate, with 100 uL per well (containing 1000 cancer cells). After 24 hours of culture in 5% CO2 thermos incubator at temperature of 37° C. the drugs were added. Blank control group was established and the drug for the positive control was Fluorouracil. The tested drugs were divided into five groups at different concentrations, each concentration was tested for three times parallelly, and placed in 5% CO2 thermos incubator at temperature of 37° C. to culture for four days. The culture solution was discarded and 100 uL of MTT solution (0.4 mg/ml, prepared with RPMI 1640) was added per well to continue to culture for four hours at temperature of 37° C. The supernate was discarded and 150 uL of DMSO was added to dissolve Fomazan granules. After slight agitation, the OD value was measured with BIORAD 550 enzyme labeling instrument at the measuring wavelength of 540 nm and the reference wavelength of 450 nm.
(§5) Data of cell inhibiting rate was then plotted vs. the concentration of drugs to obtain the dose-reaction curve, by which 50% inhibitory concentration IC50 was calculated (see Table 1 and Table 2).

[2] = tested on: HCT-8(human colon carcinoma cells); experiment: MTT reduction assay, killing tumor cells; assay type: cell-based; settings: HCT-8 cells, four days culture with drug
Method: as §1, §2, §3, §4, §5

[3] = tested on: MCF-7(human breast carcinoma cells); experiment: MTT reduction assay, killing tumor cells; assay type: cell-based; settings: MCF-7 cells, four days culture with drug
Method: as §1, §2, §3, §4, §5

[4] = tested on: A549 (human lung carcinoma cells); experiment: MTT reduction assay, killing tumor cells; assay type: cell-based; settings: four days culture with drug
Method: as §1, §2, §3, §4, §5

[5] = tested on: BGC-823(human gastric carcinoma cells); experiment: MTT reduction assay, killing tumor cells; assay type: cell-based; settings: BGC-823 cells, four days culture with drug
Method: as §1, §2, §3, §4, §5

[6] = tested on: Bel7402 (human liver carcinoma cells); experiment: MTT reduction assay, killing tumor cells; assay type: cell-based; settings: Bel-7402 cells, four days culture with drug
Method: as §1, §2, §3, §4, §5

[7] = studies published in WO0057867; cited from earlier work
[8] = tested on: HCT-8, A549, MCF-7, Bel7402, BGC-823 and MV3 cancer cell strains; experiment: MTT reduction assay, summary over the selected cell strains; assay type: cell-based; settings: Homo sapiens; summary of Table 1 over all selected cell strains; read-out: IC50 ranges for the selected cell strains
Method: as §1, §4, §5

[9] = Stability of TMZ-8-carboxylate in media of different pH (HPLC); assay type: physicochemical; settings: 1% aqueous solution, sampled up to 32 months
Method: The sodium hydroxide and citric acid were accurately weighed and respectively diluted with water to form the solution with the pH value of 7.5, 7.0, 6.5, 6.0 and 5.5. n-Hexyl TMZ-8-carboxylate was accurately weighed, and dissolved into said aqueous solutions with different pH values to form a series of 1% solutions of n-hexyl TMZ-8-carboxylate. Three sample solutions (20 ml) were taken out in each of above solutions and placed into 50 ml volumetric brown glass bottle, sealed and allowed to stand at room temperature. At 1, 4, 8, 12, 16, 20, 24, 28, 32 months after beginning, the solutions were sampled and determined the concentration of n-hexyl TMZ-8-carboxylate by HPLC, to calculate the average of three parallel solutions and plotted.

[10] = Stability of TMZ-8-carboxylate derivatives in alcohols (HPLC); assay type: physicochemical; settings: room temperature, sampled up to 32 months
Method: n-hexyl TMZ-8-carboxylate was weighed accurately and prepared into 1% of solution by diluting respectively with methanol, ethanol, isopropanol and tert-butyl alcohol. Three sample solutions (20 ml) were taken out in each of above solutions and placed into 50 ml volumetric brown glass bottle, sealed and allowed to stand at room temperature. At time of 1, 4, 8, 12, 16, 20, 24, 28, 32 months after beginning, the solutions were sampled and determined the concentration of n-hexyl TMZ-8-carboxylate by HPLC, to calculate the average value of three parallel solutions and plotted.

[11] = tested on: xenotransplanted human melanoma MV3; experiment: Topical administration, growth of xenotransplanted human melanoma in MV3 nude mouse; assay type: in vivo, nude mouse of BALB/c-nu
Method: Hexyl TMZ-8-carboxylate was selected as the representative to investigate the influence of TMZ-8-carboxylate derivatives on the growth of xenotransplanted human melanoma in MV3 nude mouse.
Hexyl TMZ-8-carboxylate was dissolved in DMSO to obtain 50 mg/ml solution. Human melanoma was xenotransplanted to nude mouse of BALB/c-nu to allow it to grow. Until the tumor expanded to the volume of 100˜300 mm^3, all animals were divided into two groups in accordance with the size of tumor, eight mice per group.
Of these two groups, one was the treatment group in therapeutical treatment by spreading the solution of hexyl TMZ-8-carboxylate; another was the control group where the tumor grows naturally.
In the treatment group, the drug was administered by spreading drug at the position of tumor and surrounding area (2 cm×2 cm) twice a day (once on Saturday and Sunday). Every time, when the solution was dried, administration was repeated for 1 to 2 times. The daily average dose of hexyl TMZ-8-carboxylate administered for a mouse totally was about 20 mg.
The volume of tumor in mouse was measured twice a week, so as to observe and record their growth dynamically. Until the tumor of the control group grew up to a certain volume, all the mice were killed the tumors were stripped off and weighed, growth inhibition rate was calculated. Tumor proliferation (T/C(%)) was calculated using relative volume of tumor in two groups.
Tumor volume (TV) was calculated by the equation as follows: Length×width^2÷2
The relative tumor volume is calculated by the equation as follows: Vt/Vo
Wherein the Vo is the TV measured at the time when the animals were raised in separate cages, and […] is the TV measured each time after.
The t-test was used to compare the statistical difference between two groups in many indexes such as tumor weight, TV and RTV. The relative tumor proliferation rate (T/C(%))was used as the index of bioactivity for anti tumor, which was calculated as follows: […]
The effect was evaluated by statistical analysis. The effect was regarded as invalid when T/C (%) is more than 60, and as effective when T/C (%) is equal to or less than 60 and p<0.05.

[12] = Homo sapiens, MV-3, 96 h, read-out: IC50
[13] = Homo sapiens, 96 h, read-out: IC50
[14] = Homo sapiens, MCF7, 96 h, read-out: IC50
[15] = 20 mg/day/mouse spread on tumor, beginning of test, X ± SD

IC50 [8]: 10 to 30 µg/mL (≈ 39.8 to 119 µM)
SMILES: CCCCOC(=O)c1ncn2c(=O)n(C)nnc12 [butyl TMZ-8-carboxylate, Butyl 3,4-dihydro-3-methyl-4-oxoimidazo[5,1-d]-1,2,3,5-tetrazine-8-carboxylate]
IC50 [2, 13]: 27.4 µg/mL (≈ 109 µM)
IC50 [3, 14]: 16.6 µg/mL (≈ 65.9 µM)
IC50 [4, 13]: 25.3 µg/mL (≈ 101 µM)
IC50 [5, 13]: > 19.5 µg/mL
IC50 [1, 12]: 7.57 µg/mL (≈ 30.1 µM)
IC50 [6, 13]: 24.4 µg/mL (≈ 97 µM)

IC50 [8]: 10 to 30 µg/mL (≈ 47.8 to 143 µM)
SMILES: COC(=O)c1ncn2c(=O)n(C)nnc12 [methyl TMZ-8-carboxylate, Methyl 3,4-dihydro-3-methyl-4-oxoimidazo[5,1-d]-1,2,3,5-tetrazine-8-carboxylate]
IC50 [2, 13]: 28.4 µg/mL (≈ 136 µM)
IC50 [3, 14]: 17.7 µg/mL (≈ 84.5 µM)
IC50 [4, 13]: 27 µg/mL (≈ 129 µM)
IC50 [5, 13]: > 19.5 µg/mL
IC50 [1, 12]: 8.83 µg/mL (≈ 42.2 µM)
IC50 [6, 13]: 25.3 µg/mL (≈ 121 µM)

Stability in acidic (pH<7.0) medium ([9]; pH 6.5, 6.0 and 5.5, room temperature): keep relatively stable
Stability in neutral (pH7.0) medium ([9]; pH7.0, room temperature): rapidly decomposes
Stability in weakly alkaline (pH7.5) medium ([9]; pH7.5, room temperature): rapidly decomposes
IC50 [8]: 10 to 30 µg/mL (≈ 35.8 to 107 µM)
Stability in ethanol ([10]; 1% solution in ethanol): rapidly decomposes
Stability in isopropanol ([10]; 1% solution in isopropanol): keeps stable
Stability in methanol ([10]; 1% solution in methanol): rapidly decomposes
Stability in tert-butyl alcohol ([10]; 1% solution in tert-butyl alcohol): keeps stable
SMILES: CCCCCCOC(=O)c1ncn2c(=O)n(C)nnc12 [n-hexyl TMZ-8-carboxylate, n-hexyl 3,4-dihydro-3-methyl-4-oxoimidazo[5,1-d]-1,2,3,5-tetrazine-8-carboxylate]
IC50 [3, 14]: 20 µg/mL (≈ 71.6 µM)
IC50 [5, 13]: > 19.5 µg/mL
IC50 [1, 12]: 8.84 µg/mL (≈ 31.6 µM)
Effect on the growth of carcinomas in the mice ([11]; 20 mg daily externally administered per mouse, human melanoma MV3): significant inhibiting effects
Body weight(g) Beginning test [11, 15]: 24.0 ± 1.48 g
Tumor volume (mm^3) Beginning test [11, 15]: 115 ± 36 mm^3
Body weight(g) End test ([11]; 20 mg/day/mouse spread on tumor, end of test, X ± SD): 25.6 ± 3.64 g
Tumor volume (mm^3) End test ([11]; 20 mg/day/mouse spread on tumor, end of test, X ± SD, P < 0.05 vs control): 635 ± 545.1* mm^3
Weight of tumor ([11]; 20 mg/day/mouse topical, end of test, X ± SD): 0.45 ± 0.335 g
Inhibiting rate (%) ([11]; growth inhibition rate from tumor weight, 20 mg/day/mouse topical): 83.2%
T/C(%) ([11]; relative tumor proliferation rate, 20 mg/day/mouse topical, effective if <= 60 and p<0.05): 33.7%
RTV ([11]; relative tumor volume Vt/Vo, 20 mg/day/mouse topical): 3.25 ± 1.85

Continued, compound first:

SMILES: O=c1[nH]cc(F)c(=O)[nH]1 [Fluorouracil, reference compound]
IC50 [1, 12]: 0.427 µg/mL (≈ 3.28 µM)

SMILES: Cn1nnc2c(C(=O)O)ncn2c1=O [TMZ acid, reference compound]
IC50 [2]: 18.525 µg/mL (≈ 94.9 µM)
IC50 [3]: 14.911 µg/mL (≈ 76.4 µM)
IC50 [4]: >19.5 µg/mL
IC50 [5]: >19.5 µg/mL
IC50 [1]: 14.625 µg/mL (≈ 74.9 µM)
IC50 [6]: 16.957 µg/mL (≈ 86.9 µM)

SMILES: Cn1nnc2c(C(N)=O)ncn2c1=O [TMZ, Temozolomide]
Permeation of artificial skin (silicon membrane), rat skin and human skin [7]: inability to permeate
